According to PubChem BioAssay (NCI):
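Five concentrations, 48 hours, 96-well plates. TGI marks complete inhibition of growth.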

Assays:
Test in all cases: NCI anticancer screen, dose series, 48 h
SW-620 colon = test system: SW-620 colon
HOP-92 NSCLC = test system: HOP-92 NSCLC
NCI-H522 lung = test system: NCI-H522 lung
KM20L2 colon = test system: KM20L2 colon
KM12 colon = test system: KM12 colon
HOP-62 NSCLC = test system: HOP-62 NSCLC
OVCAR-4 ovarian = test system: OVCAR-4 ovarian
OVCAR-5 ovarian = test system: OVCAR-5 ovarian
HT29 colon = test system: HT29 colon
SNB-19 CNS = test system: SNB-19 CNS
SNB-75 CNS = test system: SNB-75 CNS
COLO 205 colon = test system: COLO 205 colon
UO-31 renal = test system: UO-31 renal
SK-MEL-28 melanoma = test system: SK-MEL-28 melanoma
SN12C renal = test system: SN12C renal
HL-60(TB) leukemia = test system: HL-60(TB) leukemia
U251 CNS = test system: U251 CNS
M14 melanoma = test system: M14 melanoma
OVCAR-8 ovarian = test system: OVCAR-8 ovarian
TK-10 renal = test system: TK-10 renal
UACC-62 melanoma = test system: UACC-62 melanoma
SF-268 CNS = test system: SF-268 CNS
SK-MEL-5 melanoma = test system: SK-MEL-5 melanoma
HCT-116 colon = test system: HCT-116 colon
EKVX NSCLC = test system: EKVX NSCLC
SR leukemia = test system: SR leukemia
UACC-257 melanoma = test system: UACC-257 melanoma
NCI-H23 lung = test system: NCI-H23 lung
MALME-3M melanoma = test system: MALME-3M melanoma
A549 NSCLC = test system: A549 NSCLC
SF-539 CNS = test system: SF-539 CNS
RXF 393 renal = test system: RXF 393 renal
M19-MEL melanoma = test system: M19-MEL melanoma
RPMI-8226 leukemia = test system: RPMI-8226 leukemia
OVCAR-3 ovarian = test system: OVCAR-3 ovarian
SK-MEL-2 melanoma = test system: SK-MEL-2 melanoma
K-562 leukemia = test system: K-562 leukemia
LXFL 529 NSCLC = test system: LXFL 529 NSCLC
SK-OV-3 ovarian = test system: SK-OV-3 ovarian
DMS 114 small cell lung = test system: DMS 114 small cell lung
CCRF-CEM leukemia = test system: CCRF-CEM leukemia
NCI-H460 lung = test system: NCI-H460 lung
IGROV1 ovarian = test system: IGROV1 ovarian
MOLT-4 leukemia = test system: MOLT-4 leukemia
SF-295 CNS = test system: SF-295 CNS
A498 renal = test system: A498 renal
XF 498 CNS = test system: XF 498 CNS
DMS 273 small cell lung = test system: DMS 273 small cell lung
786-0 renal = test system: 786-0 renal
SNB-78 CNS = test system: SNB-78 CNS
LOX IMVI melanoma = test system: LOX IMVI melanoma
ACHN renal = test system: ACHN renal
HCC-2998 colon = test system: HCC-2998 colon
DLD-1 colon = test system: DLD-1 colon
HOP-18 NSCLC = test system: HOP-18 NSCLC
HCT-15 colon = test system: HCT-15 colon
CAKI-1 renal = test system: CAKI-1 renal
NCI-H226 lung = test system: NCI-H226 lung

Structure (SMILES): O=C1C(Cl)N(c2cccc([N+](=O)[O-])c2)C1c1c[nH]c2ccccc12 (stereo unspecified)
- TGI (SW-620 colon): > 100 µM
- TGI (HOP-92 NSCLC): 47.9 µM
- TGI (NCI-H522 lung): 48.7 µM
- TGI (KM20L2 colon): 53.6 µM
- TGI (KM12 colon): 49.7 µM
- TGI (HOP-62 NSCLC): 33.6 µM
- TGI (OVCAR-4 ovarian): 33.7 µM
- TGI (OVCAR-5 ovarian): 37.4 µM
- TGI (HT29 colon): 43.7 µM
- TGI (SNB-19 CNS): 57.8 µM
- TGI (SNB-75 CNS): 47.2 µM
- TGI (COLO 205 colon): 41.8 µM
- TGI (UO-31 renal): 47.9 µM
- TGI (SK-MEL-28 melanoma): 73.5 µM
- TGI (SN12C renal): > 100 µM
- TGI (HL-60(TB) leukemia): > 100 µM
- TGI (U251 CNS): 56.6 µM
- TGI (M14 melanoma): 33 µM
- TGI (OVCAR-8 ovarian): 60.4 µM
- TGI (TK-10 renal): 59.4 µM
- TGI (UACC-62 melanoma): 32.4 µM
- TGI (SF-268 CNS): > 100 µM
- TGI (SK-MEL-5 melanoma): 34.5 µM
- TGI (HCT-116 colon): 44.6 µM
- TGI (EKVX NSCLC): 96.8 µM
- TGI (SR leukemia): 57 µM
- TGI (UACC-257 melanoma): 49 µM
- TGI (NCI-H23 lung): 85.9 µM
- TGI (MALME-3M melanoma): 14.1 µM
- TGI (A549 NSCLC): 56.3 µM
- TGI (SF-539 CNS): 40.7 µM
- TGI (RXF 393 renal): 27 µM
- TGI (M19-MEL melanoma): 42.5 µM
- TGI (RPMI-8226 leukemia): 52.2 µM
- TGI (OVCAR-3 ovarian): 54.8 µM
- TGI (SK-MEL-2 melanoma): 27.5 µM
- TGI (K-562 leukemia): 64.1 µM
- TGI (LXFL 529 NSCLC): 20.4 µM
- TGI (SK-OV-3 ovarian): 38 µM
- TGI (DMS 114 small cell lung): 47 µM
- TGI (CCRF-CEM leukemia): 65.7 µM
- TGI (NCI-H460 lung): 35.4 µM
- TGI (IGROV1 ovarian): 69.8 µM
- TGI (MOLT-4 leukemia): > 100 µM
- TGI (SF-295 CNS): 35.1 µM

Structure (SMILES): CCCCCC/C=C1\CCC(CN2CCOCC2)C1=O (stereo unspecified)
- TGI (SW-620 colon): 26.7 µM
- TGI (HOP-92 NSCLC): 34.7 µM
- TGI (NCI-H522 lung): 19.4 µM
- TGI (KM20L2 colon): 37 µM
- TGI (KM12 colon): 24.7 µM
- TGI (A498 renal): 35.2 µM
- TGI (XF 498 CNS): 29.9 µM
- TGI (DMS 273 small cell lung): 32.5 µM
- TGI (HOP-62 NSCLC): 32.8 µM
- TGI (OVCAR-4 ovarian): 38.8 µM
- TGI (786-0 renal): 8.75 µM
- TGI (OVCAR-5 ovarian): 37.4 µM
- TGI (HT29 colon): 34.2 µM
- TGI (SNB-19 CNS): 38.9 µM
- TGI (SNB-75 CNS): 42.3 µM
- TGI (SNB-78 CNS): 50.6 µM
- TGI (COLO 205 colon): 32.3 µM
- TGI (UO-31 renal): 27.5 µM
- TGI (LOX IMVI melanoma): 25.1 µM
- TGI (SK-MEL-28 melanoma): 30.7 µM
- TGI (SN12C renal): 33.4 µM
- TGI (HL-60(TB) leukemia): 15.7 µM
- TGI (U251 CNS): 29.3 µM
- TGI (M14 melanoma): 28.1 µM
- TGI (OVCAR-8 ovarian): 32.7 µM
- TGI (TK-10 renal): 26.4 µM
- TGI (UACC-62 melanoma): 32.1 µM
- TGI (ACHN renal): 31.2 µM
- TGI (SF-268 CNS): 43 µM
- TGI (HCC-2998 colon): 35.3 µM
- TGI (SK-MEL-5 melanoma): 38.4 µM
- TGI (HCT-116 colon): 27.7 µM
- TGI (EKVX NSCLC): 19.1 µM
- TGI (SR leukemia): 13.6 µM
- TGI (UACC-257 melanoma): 29.3 µM
- TGI (NCI-H23 lung): 31.7 µM
- TGI (MALME-3M melanoma): 30.6 µM
- TGI (DLD-1 colon): 27.4 µM
- TGI (A549 NSCLC): > 67.3 µM
- TGI (SF-539 CNS): 31.2 µM
- TGI (HOP-18 NSCLC): 20 µM
- TGI (HCT-15 colon): 25.9 µM
- TGI (RPMI-8226 leukemia): > 100 µM
- TGI (OVCAR-3 ovarian): 32.7 µM
- TGI (SK-MEL-2 melanoma): 33.4 µM
- TGI (K-562 leukemia): 16.4 µM
- TGI (LXFL 529 NSCLC): 11.1 µM
- TGI (SK-OV-3 ovarian): > 79.4 µM
- TGI (DMS 114 small cell lung): 33.2 µM
- TGI (CCRF-CEM leukemia): > 25.4 µM
- TGI (NCI-H460 lung): > 66 µM
- TGI (IGROV1 ovarian): 36.6 µM
- TGI (MOLT-4 leukemia): 18.1 µM
- TGI (CAKI-1 renal): 31.4 µM
- TGI (NCI-H226 lung): 30 µM
- TGI (SF-295 CNS): 39.3 µM
